{"source": "patent US20020076722A1", "about": "“Antibiotic hypersusceptibility mutations in bacteria” (priority 2000, published 2002)", "key": {"[1]": {"test_system": "Acinetobacter library cells", "test": "Inhibition of growth of Acinetobacter library cells by ampicillin in liquid culture", "format": "cell-based, Acinetobacter sp. strain BD413", "experimental": "Clones hypersusceptible to the β-lactam drug ampicillin, an antibiotic that is well known to cause bacterial lysis, were selected. As compared to E. coli, Acinetobacter is remarkably resistant to ampicillin.\nTo purify the DNA released, bacterial cells from the insertional library of Acinetobacter were diluted in LB medium to OD600 0.025 and allowed to grow at 37° C. to OD600 0.1. Ampicillin was added to 5 ml aliquots of the culture at a variety of concentrations. After two hours, the cells were removed by centrifugation. DNA released into the medium in response to incubation with ampicillin was purified using a variation of the Wizard DNA purification protocols of Promega. Specifically, three grams of guanidine-HCl was dissolved in 5 ml of the culture medium and 1 ml of the slurry of DNA-binding silica resin (Promega Wizard DNA purification resin) was added. After a 5 min incubation with shaking, the resin was collected in a mini-column by passing the slurry through it with a syringe. […]\nCells of a frozen insertional library of Acinetobacter were diluted in LB medium to OD600 0.025 and allowed to grow at 37° C. to OD600 0.1, at which point ampicillin was added to 5 ml aliquots of the culture at the indicated concentrations. Two hours later the density of the cultures was measured, cells were removed by centrifugation and the DNA released into the medium was purified. […]"}, "[2]": {"test_system": "Acinetobacter library cells and SDR-selected clones", "test": "Growth of clones replica-plated on LB-agar plates with different concentrations of ampicillin", "format": "cell-based, Acinetobacter sp.", "experimental": "Each individual clone was inoculated into a well of a 96-well plate. When the cultures reached the density of approx. OD600 0.2-0.5, they were transferred by using a 6×8-pin replicator onto LB-agar plates containing kanamycin (25 μg/ml) and different concentrations of ampicillin. Plates were digitally scanned after 24 hr of incubation at 37° C. (FIG. 3). The spots indicated as Library are identical cultures from the original library and serve here as controls.\nThe computer scans of different plates were combined in a single set. This study has been conducted essentially as described in Example 2."}, "LIT1 strain": {"test_system": "LIT1 strain", "test": "Release of DNA and growth of the LIT1 lysis reporter strain with translational inhibitors", "format": "cell-based, Acinetobacter", "settings": "LIT1 clone; for DNA released in presence of antibiotic versus absence, normalized per ml of culture: 2 h (chloramphenicol) or 1.5 h (erythromycin, tetracycline)", "experimental": "The LIT1 cells were inoculated in LB at OD600 0.05 and grown at 37° C. to OD600 0.2 at which time antibiotics were added at indicated concentrations. Two (chloramphenicol) or 1.5 (erythromycin and tetracycline) hours later the OD600 of the cultures were measured, cells were spun down and the released DNA was purified as described above. The amounts of DNA in μg normalized per milliliter of culture was determined fluorimetrically by adding an aliquot of the isolated DNA to the solution of ethidium bromide (0.5 μg/ml) and measuring the fluorescence at λex 540 and λem 580 nm (FIG. 7). The values obtained were compared with the calibration curve for known amounts of DNA."}, "[3]": {"test_system": "alkM model strain (lysis cassette under alkM promoter)", "test": "Induction of DNA release by hexadecane in the alkM model strain", "format": "cell-based, Acinetobacter", "experimental": "(§1) FIG. 6—Gene organization in the alkM model strain and induction of DNA release before and after SDR selection. Transformants 1 and 2 and the derivative of the transformant 1 after four cycles of SDR selection were grown to OD600 0.3 and a drop of hexadecane was added to 5 ml of the culture. After overnight incubation (induction of the alkM expression occurs only in stationary phase (Ratajczak et al., J. Bacteriol. 180(22):5822-7, 1998)) the released DNA was purified from the medium as described in the text.\n(§2) A model strain of Acinetobacter with the lysis cassette of λ inserted under the control of a antibiotic-inducible promoter was constructed and determined to release DNA in response to the antibiotic inducer. A promoter of the alkM gene of Acinetobacter, which encodes an enzyme involved in degradation of hydrocarbons and whose expression is activated dramatically by hexadecane, was chosen (Ratajczak et al., 1998). The promoter-less lysis cassette was PCR-amplified from the DNA of λ. The 5′-end of the gene of S-protein, which is the limiting factor in lysis (Young, 1992), was modified by an appropriately designed PCR primer. In particular, the alternative start codon from which an inhibitory variant of S is translated has been eliminated by mutation. […]"}, "wild-type Acinetobacter": {"test_system": "wild-type Acinetobacter", "test": "DNA release by hexadecane in wild-type Acinetobacter", "format": "cell-based", "experimental": "as §1, §2"}, "E. Coli": {"test_system": "E. Coli", "settings": "bulgecin as known inhibitor of Slt; cited from earlier work"}}}
{"compound": "CC1(C)S[C@@H]2[C@H](NC(=O)[C@H](N)c3ccccc3)C(=O)N2[C@H]1C(=O)O", "note": "[ampicillin]", "values": [{"measurement": "growth inhibition at the concentrations used for SDR selection", "setting": "[1]; 1, 3 and 9 μg/ml ampicillin, little lysis", "value": "only moderate growth inhibition"}, {"measurement": "ampicillin concentration at which slow growth was still observed", "setting": "[1]; liquid culture, LB, 37° C., two hours", "value": 729, "unit": "µg/mL"}, {"measurement": "ampicillin concentration on plates at which library cells were still growing", "setting": "[2]; original library cells, LB-agar, 24 hr", "value": 32, "unit": "µg/mL"}, {"measurement": "ampicillin concentration at which clones could not grow", "setting": "[2]; seventeen of 30 tested clones selected with 3 μg/ml of ampicillin", "value": 1, "unit": "µg/mL"}]}
{"compound": "O=C(N[C@H](CO)[C@H](O)c1ccc([N+](=O)[O-])cc1)C(Cl)Cl", "note": "[chloramphenicol]", "values": [{"measurement": "increase of released DNA normalized per number of cells", "setting": "LIT1 strain", "value": "approximately ten-fold"}, {"measurement": "DNA released in presence of antibiotic versus absence, normalized per ml of culture", "setting": "LIT1 strain", "value": "four times more"}]}
{"compound": "CC[C@H]1OC(=O)[C@H](C)[C@@H](O[C@H]2C[C@@](C)(OC)[C@@H](O)[C@H](C)O2)[C@H](C)[C@@H](O[C@@H]2O[C@H](C)C[C@H](N(C)C)[C@H]2O)[C@](C)(O)C[C@@H](C)C(=O)[C@H](C)[C@@H](O)[C@]1(C)O", "note": "[erythromycin]", "values": [{"measurement": "increase of released DNA normalized per number of cells", "setting": "LIT1 strain", "value": "approximately ten-fold"}, {"measurement": "DNA released in presence of antibiotic versus absence, normalized per ml of culture", "setting": "LIT1 strain", "value": "four-fold"}]}
{"compound": "CCCCCCCCCCCCCCCC", "note": "[hexadecane]", "values": [{"measurement": "effect on optical density of the culture", "setting": "[3]; model strain before SDR selection", "value": "did not cause significant reduction"}, {"measurement": "effect on amount of DNA released", "setting": "[3]; transformants, drop of hexadecane in 5 ml culture, overnight", "value": "significant increase"}, {"measurement": "effect on release of DNA", "setting": "wild-type Acinetobacter", "value": "no effect"}]}
{"compound": "CN(C)[C@@H]1C(O)=C(C(N)=O)C(=O)[C@@]2(O)C(O)=C3C(=O)c4c(O)cccc4[C@@](C)(O)[C@H]3C[C@@H]12", "note": "[tetracycline]", "values": [{"measurement": "increase of released DNA normalized per number of cells", "setting": "LIT1 strain", "value": "~35", "unit": "fold"}]}
{"compound": "bulgecin", "values": [{"measurement": "effect on sensitivity to the β-lactam antibiotic cefoxitin", "setting": "E. Coli", "value": "increase the sensitivity"}]}
